In PubChem BioAssay (NCI):
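Values below derive from 48-hour exposures of cells grown in 96-well plates, with endpoints linearly interpolated between the two concentrations bracketing the appropriate inhibition level. Definition used: TGI = concentration required for complete inhibition of growth.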

Tests used:
Experiment in all cases: NCI anticancer screen, dose series, 48 h
786-0 renal = test system: 786-0 renal
A498 renal = test system: A498 renal
A549 NSCLC = test system: A549 NSCLC
ACHN renal = test system: ACHN renal
BT-549 breast = test system: BT-549 breast
CAKI-1 renal = test system: CAKI-1 renal
COLO 205 colon = test system: COLO 205 colon
DU-145 prostate = test system: DU-145 prostate
EKVX NSCLC = test system: EKVX NSCLC
HCC-2998 colon = test system: HCC-2998 colon
HCT-116 colon = test system: HCT-116 colon
HCT-15 colon = test system: HCT-15 colon
HOP-62 NSCLC = test system: HOP-62 NSCLC
HOP-92 NSCLC = test system: HOP-92 NSCLC
HS 578T breast = test system: HS 578T breast
HT29 colon = test system: HT29 colon
IGROV1 ovarian = test system: IGROV1 ovarian
K-562 leukemia = test system: K-562 leukemia
KM12 colon = test system: KM12 colon
LOX IMVI melanoma = test system: LOX IMVI melanoma
M14 melanoma = test system: M14 melanoma
MALME-3M melanoma = test system: MALME-3M melanoma
MCF7 breast = test system: MCF7 breast
MDA-MB-231 breast = test system: MDA-MB-231 breast
MDA-MB-435 = test system: MDA-MB-435
MDA-N = test system: MDA-N
MOLT-4 leukemia = test system: MOLT-4 leukemia
NCI-H226 lung = test system: NCI-H226 lung
NCI-H23 lung = test system: NCI-H23 lung
NCI-H460 lung = test system: NCI-H460 lung
NCI-H522 lung = test system: NCI-H522 lung
NCI/ADR-RES ovarian = test system: NCI/ADR-RES ovarian
OVCAR-3 ovarian = test system: OVCAR-3 ovarian
OVCAR-4 ovarian = test system: OVCAR-4 ovarian
OVCAR-5 ovarian = test system: OVCAR-5 ovarian
OVCAR-8 ovarian = test system: OVCAR-8 ovarian
PC-3 prostate = test system: PC-3 prostate
RPMI-8226 leukemia = test system: RPMI-8226 leukemia
SF-268 CNS = test system: SF-268 CNS
SF-295 CNS = test system: SF-295 CNS
SF-539 CNS = test system: SF-539 CNS
SK-MEL-2 melanoma = test system: SK-MEL-2 melanoma
SK-MEL-28 melanoma = test system: SK-MEL-28 melanoma
SK-MEL-5 melanoma = test system: SK-MEL-5 melanoma
SK-OV-3 ovarian = test system: SK-OV-3 ovarian
SN12C renal = test system: SN12C renal
SNB-19 CNS = test system: SNB-19 CNS
SNB-75 CNS = test system: SNB-75 CNS
SR leukemia = test system: SR leukemia
SW-620 colon = test system: SW-620 colon
T-47D breast = test system: T-47D breast
TK-10 renal = test system: TK-10 renal
U251 CNS = test system: U251 CNS
UACC-257 melanoma = test system: UACC-257 melanoma
UACC-62 melanoma = test system: UACC-62 melanoma
UO-31 renal = test system: UO-31 renal
HL-60(TB) leukemia = test system: HL-60(TB) leukemia
RXF 393 renal = test system: RXF 393 renal
CCRF-CEM leukemia = test system: CCRF-CEM leukemia

## CCOC(=O)C1=C(C#N)S(=O)(=O)c2c(oc(C)c2C)N1
786-0 renal
  TGI: > 100 µM
A498 renal
  TGI: > 100 µM
A549 NSCLC
  TGI: > 100 µM
ACHN renal
  TGI: > 100 µM
BT-549 breast
  TGI: > 100 µM
CAKI-1 renal
  TGI: > 100 µM
COLO 205 colon
  TGI: > 100 µM
DU-145 prostate
  TGI: > 100 µM
EKVX NSCLC
  TGI: > 100 µM
HCC-2998 colon
  TGI: > 100 µM
HCT-116 colon
  TGI: > 100 µM
HCT-15 colon
  TGI: > 100 µM
HOP-62 NSCLC
  TGI: > 100 µM
HOP-92 NSCLC
  TGI: > 100 µM
HS 578T breast
  TGI: > 100 µM
HT29 colon
  TGI: > 100 µM
IGROV1 ovarian
  TGI: > 100 µM
K-562 leukemia
  TGI: > 100 µM
KM12 colon
  TGI: > 100 µM
LOX IMVI melanoma
  TGI: > 100 µM
M14 melanoma
  TGI: > 100 µM
MALME-3M melanoma
  TGI: > 100 µM
MCF7 breast
  TGI: > 100 µM
MDA-MB-231 breast
  TGI: > 100 µM
MDA-MB-435
  TGI: > 100 µM
MDA-N
  TGI: > 100 µM
MOLT-4 leukemia
  TGI: > 100 µM
NCI-H226 lung
  TGI: > 100 µM
NCI-H23 lung
  TGI: > 100 µM
NCI-H460 lung
  TGI: > 100 µM
NCI-H522 lung
  TGI: > 100 µM
NCI/ADR-RES ovarian
  TGI: > 100 µM
OVCAR-3 ovarian
  TGI: > 100 µM
OVCAR-4 ovarian
  TGI: > 100 µM
OVCAR-5 ovarian
  TGI: > 100 µM
OVCAR-8 ovarian
  TGI: > 100 µM
PC-3 prostate
  TGI: > 100 µM
RPMI-8226 leukemia
  TGI: > 100 µM
SF-268 CNS
  TGI: > 100 µM
SF-295 CNS
  TGI: > 100 µM
SF-539 CNS
  TGI: > 100 µM
SK-MEL-2 melanoma
  TGI: > 100 µM
SK-MEL-28 melanoma
  TGI: > 100 µM
SK-MEL-5 melanoma
  TGI: > 100 µM
SK-OV-3 ovarian
  TGI: > 100 µM
SN12C renal
  TGI: > 100 µM
SNB-19 CNS
  TGI: > 100 µM
SNB-75 CNS
  TGI: > 100 µM
SR leukemia
  TGI: > 100 µM
SW-620 colon
  TGI: > 100 µM
T-47D breast
  TGI: > 100 µM
TK-10 renal
  TGI: > 100 µM
U251 CNS
  TGI: > 100 µM
UACC-257 melanoma
  TGI: > 100 µM
UACC-62 melanoma
  TGI: > 100 µM
UO-31 renal
  TGI: > 100 µM

## Cc1ccc(O)c(-c2cc(-c3cccc(Br)c3)c(C#N)c(N)n2)c1
786-0 renal
  TGI: > 100 µM
A549 NSCLC
  TGI: 87.1 µM
ACHN renal
  TGI: 49.3 µM
BT-549 breast
  TGI: > 100 µM
CAKI-1 renal
  TGI: 75.6 µM
COLO 205 colon
  TGI: 34.2 µM
DU-145 prostate
  TGI: > 100 µM
EKVX NSCLC
  TGI: 65.5 µM
HCC-2998 colon
  TGI: 48.6 µM
HCT-116 colon
  TGI: 42.4 µM
HCT-15 colon
  TGI: 30.6 µM
HL-60(TB) leukemia
  TGI: 72 µM
HOP-62 NSCLC
  TGI: > 100 µM
HS 578T breast
  TGI: 62.8 µM
HT29 colon
  TGI: 54.7 µM
IGROV1 ovarian
  TGI: 50.9 µM
K-562 leukemia
  TGI: 57.3 µM
KM12 colon
  TGI: 58.9 µM
LOX IMVI melanoma
  TGI: 31.1 µM
M14 melanoma
  TGI: 89.2 µM
MALME-3M melanoma
  TGI: 63.1 µM
MCF7 breast
  TGI: 92 µM
MDA-MB-231 breast
  TGI: 52.7 µM
MDA-MB-435
  TGI: 39.8 µM
MDA-N
  TGI: 79.6 µM
MOLT-4 leukemia
  TGI: 77.1 µM
NCI-H226 lung
  TGI: 44.1 µM
NCI-H23 lung
  TGI: > 100 µM
NCI-H460 lung
  TGI: 55.7 µM
NCI-H522 lung
  TGI: 47.8 µM
NCI/ADR-RES ovarian
  TGI: > 100 µM
OVCAR-3 ovarian
  TGI: > 100 µM
OVCAR-4 ovarian
  TGI: 22.5 µM
OVCAR-5 ovarian
  TGI: > 100 µM
OVCAR-8 ovarian
  TGI: > 100 µM
PC-3 prostate
  TGI: 55.6 µM
RPMI-8226 leukemia
  TGI: 28 µM
RXF 393 renal
  TGI: 62.5 µM
SF-268 CNS
  TGI: > 100 µM
SF-295 CNS
  TGI: 54.2 µM
SF-539 CNS
  TGI: 75.5 µM
SK-MEL-2 melanoma
  TGI: 51.6 µM
SK-MEL-5 melanoma
  TGI: 60 µM
SK-OV-3 ovarian
  TGI: 87.3 µM
SN12C renal
  TGI: 49.7 µM
SNB-19 CNS
  TGI: 45.7 µM
SR leukemia
  TGI: 46.8 µM
SW-620 colon
  TGI: 89.8 µM
T-47D breast
  TGI: 76.2 µM
TK-10 renal
  TGI: 40.2 µM
U251 CNS
  TGI: 35.3 µM
UACC-257 melanoma
  TGI: 52 µM
UACC-62 melanoma
  TGI: 37.4 µM
UO-31 renal
  TGI: 72.7 µM

## CC(C)(C)[Si](C)(C)OC1(CCc2ccccc2OS(=O)(=O)C(F)(F)F)CCCC=C1COCc1ccccc1 (stereo unspecified)
786-0 renal
  TGI: > 100 µM
A498 renal
  TGI: > 100 µM
A549 NSCLC
  TGI: > 100 µM
ACHN renal
  TGI: > 50.9 µM
BT-549 breast
  TGI: > 100 µM
CAKI-1 renal
  TGI: > 100 µM
CCRF-CEM leukemia
  TGI: > 76.4 µM
COLO 205 colon
  TGI: > 100 µM
DU-145 prostate
  TGI: > 100 µM
EKVX NSCLC
  TGI: > 100 µM
HCC-2998 colon
  TGI: > 100 µM
HCT-116 colon
  TGI: > 100 µM
HCT-15 colon
  TGI: > 100 µM
HL-60(TB) leukemia
  TGI: > 55.3 µM
HOP-62 NSCLC
  TGI: > 100 µM
HS 578T breast
  TGI: > 100 µM
HT29 colon
  TGI: > 100 µM
IGROV1 ovarian
  TGI: > 100 µM
K-562 leukemia
  TGI: > 100 µM
KM12 colon
  TGI: > 100 µM
LOX IMVI melanoma
  TGI: > 100 µM
M14 melanoma
  TGI: > 100 µM
MCF7 breast
  TGI: > 54.8 µM
MDA-MB-231 breast
  TGI: > 100 µM
MDA-MB-435
  TGI: > 100 µM
MDA-N
  TGI: > 100 µM
MOLT-4 leukemia
  TGI: > 62.3 µM
NCI-H226 lung
  TGI: > 100 µM
NCI-H23 lung
  TGI: > 100 µM
NCI-H460 lung
  TGI: > 100 µM
NCI/ADR-RES ovarian
  TGI: > 100 µM
OVCAR-3 ovarian
  TGI: > 100 µM
OVCAR-4 ovarian
  TGI: > 100 µM
OVCAR-5 ovarian
  TGI: > 100 µM
OVCAR-8 ovarian
  TGI: > 100 µM
PC-3 prostate
  TGI: > 100 µM
RPMI-8226 leukemia
  TGI: > 52.7 µM
RXF 393 renal
  TGI: 90.8 µM
SF-268 CNS
  TGI: > 100 µM
SF-295 CNS
  TGI: > 100 µM
SF-539 CNS
  TGI: > 100 µM
SK-MEL-2 melanoma
  TGI: > 100 µM
SK-MEL-28 melanoma
  TGI: > 100 µM
SK-MEL-5 melanoma
  TGI: > 100 µM
SK-OV-3 ovarian
  TGI: > 100 µM
SN12C renal
  TGI: > 100 µM
SNB-19 CNS
  TGI: > 100 µM
SNB-75 CNS
  TGI: > 100 µM
SR leukemia
  TGI: > 100 µM
SW-620 colon
  TGI: > 100 µM
T-47D breast
  TGI: > 100 µM
TK-10 renal
  TGI: > 100 µM
U251 CNS
  TGI: > 100 µM
UACC-257 melanoma
  TGI: > 100 µM
UACC-62 melanoma
  TGI: > 53 µM
UO-31 renal
  TGI: > 100 µM
